From patent publication US8841268B2, “Method and kit for detection of cancer, and therapeutic agent for cancer” (Sapporo Medical University, priority 2008, dated 2014)
Like-named read-outs stand apart in the source and are kept apart here.

Assays:
Type in all cases: cell-based, human
HCT116 cell [1] = assay: miR-34b/c expression in HCT116 cell treated with DAC and/or ADR; conditions: DAC 2 μM, 72 hours, ADR 0.5 μg/ml, 24 hours, FIG. 5A
Excerpt: U6 snRNA was used as an internal control.

p53-knockout HCT116 cell = assay: miR-34b/c expression in p53-knockout HCT116 cell treated with DAC and/or ADR; conditions: HCT116 cell in which p53 gene has been knocked out; DAC 2 μM, 72 hours; ADR 0.5 μg/ml, 24 hours; FIG. 5B
p53 [2] = conditions: HCT116 cell (WT); DAC 2 μM, 72 hours; ADR 0.5 μg/ml, 24 hours; FIG. 5C
p21 [3] = assay: Western-blotting of p21 expression in HCT116 cell (WT); conditions: DAC 2 μM, 72 hours, ADR 0.5 μg/ml, 24 hours, FIG. 5C
Excerpt: The expression of β-actin was confirmed as control, and the expression of p21 gene which is known as a representative target of p53 was similarly confirmed.

p53 [4] = conditions: p53-knockout HCT116 cell (p53KO); DAC 2 μM, 72 hours; ADR 0.5 μg/ml, 24 hours; FIG. 5C
p21 [5] = conditions: p53-knockout HCT116 cell (p53KO); DAC 2 μM, 72 hours; ADR 0.5 μg/ml, 24 hours; FIG. 5C
HCT116 cell [6] = assay: Microarray analysis of gene expression in HCT116 cell; conditions: miRNA by electroporation, RNA after 48 hours, vs control miRNA, DAC 2 μM, 72 hours vs mock, FIG. 13A
Experimental: Firstly, in order to search for a gene whose expression is decreased by miR-34b/c expression, control miRNA (control miRNA (Ambion)), miR-34b (miR-34b precursor (Ambion)) and miR-34c (miR-34c precursor (Ambion)) were introduced into a HCT116 cell by electroporation, and after 48 hours RNA was extracted and subjected to microarray analysis.

[7] = test system: MET (hepatocyte growth factor receptor) gene; assay: Real-time RT-PCR (TaqMan Gene Expression Assay) of MET gene in HCT116 cells; conditions: miRNA by electroporation, RNA after 48 hours, vs control miRNA, DAC 2 μM, 72 hours vs mock, FIG. 13B
[8] = test system: (v-myb myeloblastosis viral oncogene homolog) gene; conditions: HCT116 cells, DAC 2 μM, 72 hours vs mock, FIG. 13B
[9] = test system: CDK4 (cyclin-dependent kinase 4) gene; assay: Real-time RT-PCR (TaqMan Gene Expression Assay) of CDK4 gene in HCT116 cells; conditions: miRNA by electroporation, RNA after 48 hours, vs control miRNA, DAC 2 μM, 72 hours vs mock, FIG. 13B
CCNE2 (Cyclin E2) gene = assay: Real-time RT-PCR (TaqMan Gene Expression Assay) of CCNE2 gene in HCT116 cells; conditions: miRNA by electroporation, RNA after 48 hours, vs control miRNA, DAC 2 μM, 72 hours vs mock, FIG. 13B
[10] = test system: SFRS2 (splicing factor, arginine/serine-rich 2) gene; assay: Real-time RT-PCR (TaqMan Gene Expression Assay) of SFRS2 gene in HCT116 cells; conditions: miRNA by electroporation, RNA after 48 hours, vs control miRNA, DAC 2 μM, 72 hours vs mock, FIG. 13B
HCT116 cell [11] = assay: Expression analysis of miRNAs (TaqMan miRNA Assay, real-time PCR) in HCT116 cell; conditions: DAC 2 μM, 72 hours
[12] = test system: 9 colorectal cancer cell lines (CaCO2, Colo320, DLD1, HCT116, HT29, LoVo, RKO, SW48 and SW480); assay: Expression analysis of miR-34b and miR-34c in colorectal cancer cell lines with DAC treatment; conditions: all 9 colorectal cancer cell lines
Excerpt: DKO2 cell was used as a control, and U6 snRNA was used as an internal control.
The expression level of miRNA was converted to the ratio of the expression level of each miRNA to that of U6 snRNA (i.e., the expression level of each miRNA/the expression level of U6 snRNA) and analyzed.

MET = assay: Western-blot analysis of MET protein in HCT116 cell; conditions: anti-MET antibody, vs control miRNA / mock, FIG. 13C
Excerpt: (§1) Furthermore, for foregoing genes, changes in protein level were verified by western-blot analysis using an anti-MET antibody (MET), anti-CDK4 antibody (CDK4), anti-SFRS2 antibody (SFRS2), and anti-actin antibody as control (actin), as shown in FIG. 13C. […] The result above also indicates a more marked decrease in protein level than in RNA level.

CDK4 = assay: Western-blot analysis of CDK4 protein in HCT116 cell; conditions: anti-CDK4 antibody, vs control miRNA / mock, FIG. 13C
Excerpt: as §1

SFRS2 = assay: Western-blot analysis of SFRS2 protein in HCT116 cell; conditions: anti-SFRS2 antibody, vs control miRNA / mock, FIG. 13C
Excerpt: as §1

[13] = test system: 9 colorectal cancer cell lines (CaCO2, Colo320, DLD1, HCT116, HT29, LoVo, RKO, SW48 and SW480); assay: BTG4 expression by RT-PCR in colorectal cancer cell lines treated with DAC; conditions: DAC 2 μM, 72 hours, FIG. 14A
[14] = miRNA by electroporation, RNA after 48 hours, vs control miRNA

Compound | miR-34b/c expression (HCT116 cell [1]) | gene expression patterns (microarray) (HCT116 cell [6]) | mRNA expression level of MET gene [7] | mRNA expression level of MTB gene [8, 14] | mRNA expression level of CDK4 gene [9] | mRNA expression level of CCNE2 gene (CCNE2 (Cyclin E2) gene) | mRNA expression level of SFRS2 gene [10] | also measured
COc1cccc2c1C(=O)c1c(O)c3c(c(O)c1C2=O)C[C@@](O)(C(=O)CO)C[C@@H]3O[C@H]1C[C@H](N)[C@H](O)[C@H](C)O1 [ADR, adriamycin] | induction of miR-34b/c expression was observed | – | – | – | – | – | – | miR-34b/c expression (p53-knockout HCT116 cell): not at all; p53 expression (protein level) (p53 [2]): induced by ADR treatment; expression of p21 gene, a p53 target (p21 [3]): also induced in similar pattern to that of p53; p53 expression (protein level) (p53 [4]): neither p53 nor p21 was changed at all; p21 expression (p21 [5]): neither p53 nor p21 was changed at all
miR-34c: miR-34c precursor (Ambion); matured type sequence AGGCAGUGUAGUUAGCUGAUUGC (SEQ ID NO: 4) (precursor form, further chemistry not given here) | – | a group of genes whose expression was decreased | decreased | decreased | decreased | decreased | decreased | –
Nc1ncn([C@H]2C[C@H](O)[C@@H](CO)O2)c(=O)n1 [DAC, 5-aza-2′-deoxycytidine] | induction of miR-34b/c expression was observed | also decreased by DAC treatment | decreased | – | decreased | decreased | decreased | expression of miRNAs (expression level of each miRNA/the expression level of U6 snRNA) (HCT116 cell [11]; 157 miRNAs compared, FIG. 2): induced the expression of 37 miRNAs; expression levels of miRNA34b and miR-34c (HCT116 cell [11]; FIG. 3A): restores their expression; expression of miR-34b ([12]; FIG. 4A): induces the expression; expression of miR-34c ([12]; FIG. 4B): induces the expression; mRNA expression level of MTB gene ([8]; […]): decreased; expression level of MET protein (MET): decreased; expression level of CDK4 protein (CDK4): decreased; expression level of SFRS2 protein (SFRS2): decreased; mRNA expression of BTG4 gene [13]: markedly increased (restored)
miR-34b: miR-34b precursor (Ambion); matured type sequence UAGGCAGUGUCAUUAGCUGAUUG (SEQ ID NO: 2) (precursor form, further chemistry not given here) | – | a group of genes whose expression was decreased | decreased | decreased | decreased | decreased | decreased | –
